Blank lines part the entries; values can stand above or below the compound they belong to.
Assays:
[1] = Oral bioavailability by intraduodenal (id) dosing of minipigs, oil formulations, versus iv parent; type: in vivo, Gottingen minipig; settings: id 10 mg/kg, 10% by weight formulation, vs iv 1 mg/kg parent, AUC0-24 h
Description: Compounds were screened for oral bioavailability by injecting the formulated prodrugs directly into the duodenum (intraduodenal or id administration) of the minipig test subjects, thus bypassing the acidic environment of the stomach and thereby eliminating potentially misleading oral bioavailability results that could arise from alteration of the test article drug in the acid environment of the stomach.
The studies were conducted at Xenometrics LLC (Stillwell, Kans.) and the id bioavailability was determined using various axial ligand derivative complexes of GC4419, GC4444, GC4403 and GC4401.
Male Gottingen minipigs (4-5 mo old, 9-12 kg weight) were purchased from Marshall BioResources and housed at Xenometrics. […] The distal end was exteriorized with a reusable accessible hub (see surgical details below). During a recovery period of at least 2 weeks the minipigs were handled daily to acclimate them to the test procedures, i.e., id dosing and blood collections. For each experiment, each minipig received a test article drug dissolved or suspended in an excipient vehicle. […] All dosing experiments were conducted in fasted animals. Food was withdrawn from the minipigs 16 hours before dosing. The minipigs had ad libitum access to water. Dosed minipigs were allowed access to food 6 hour after dosing. The test article was administered at a dose of 10 mg/kg parent drug in 0.1 mL/kg vehicle (e.g., 1.5 mL in 15 kg minipig) as a bolus injection (˜1 minute) via the id cannula. The actual amount of total test article drug administered varied with the formula weight of the prodrug. An equal volume of excipient vehicle was used to flush the cannula after the test article was administered. Approximately 6 hours later, corn oil was used to flush the cannula. After approximately 24 hours post-dose, the catheter was flushed with sterile saline solution and capped. At the following time-points 0.25, 0.5, 1, 2, 4, 8, 24 and 48 hour post-injection, 2 mL blood samples were collected by cranial vena cava puncture (4 mL Sodium heparin Vacutainer, 20 g 1.5″ needle) after the skin surface was wiped with ethanol. The minipig was placed in a sling in a recumbent position without anesthesia for the collection of blood samples. The minipigs were never used more than once per 7 days for experimentation. The blood samples were kept on ice until processed for plasma. Blood samples were centrifuged at 1200×g for ten minutes at 4° C. and plasma samples were transferred to 96 well plate tubes, capped and stored at −20° C. until shipment on dry ice to the analytical laboratory used for measuring the concentration of drug in the plasma. The concentration of the parent manganese pentaaza macrocylic ring complex (independent of the composition of the axial ligands) was measured in plasma using a validated HPLC/MS/MS method that is linear between 50 ng/mL and 20,000 ng/mL.
Maisine 35-1 is chemically defined to be the monoglyceride glyceryl monolinoleate (NF) and was supplied by Gattefosse, SAINT-PRIEST Cedex, France. Labrasol (NF) is chemically defined to be caprylocaproyl polyoxyl-8 glycerides NF and was supplied by Gattefosse, SAINT-PRIEST Cedex, France. Labrafil M 1944 CS is chemically defined to be oleoyl polyoxyl-6 glycerides (NF), and is available from Gattefosse, SAINT-PRIEST Cedex, France. The dosing solutions were all prepared using a four place analytical balance by weighing all components of each formulation so that 10% by weight of each formulation contained the test article drug substance and 90% by weight of the oil used for that formulation.
The bioanalytical method which is used to quantitate the parent Mn(II) macrocyclic ring ligand structure in plasma utilizes HPLC with MS/MS detection and monitors the presence of the monocationic [monoformatoMn(pentaazamacrocycle)]+ complex. […]

[2] = system: colon of rats subjected to an experimental model of colitis; settings: ip injection; cited from earlier work
[3] = system: collagen-induced arthritis; settings: ip, rat collagen-induced arthritis; cited from earlier work
[4] = system: inflammation; settings: ip, rat; cited from earlier work
[5] = system: lethal total body irradiation; settings: ip, adult mice; cited from earlier work
[6] = system: radiation-induced oral mucositis; settings: ip, hamster oral mucositis model; cited from earlier work
[7] = system: oral mucositis; settings: iv infusion, head-and-neck cancer patients, chemoradiation therapy; cited from earlier work
[8] = system: mouse cancer models; settings: ip; cited from earlier work
[9] = system: VEGFr inhibitor-induced pulmonary disease; settings: ip, rat model; cited from earlier work
[10] = Solubility in water; type: physicochemical

Compound: [Cl-].[Cl-].[Mn+2].c1cc2nc(c1)CN[C@@H]1CCCC[C@H]1NCCN[C@@H]1CCCC[C@H]1NC2 [GC4403]
- Mini-Pig BioA ([1]; base oil Capmul MCM): 9%
- injury to the colon [2]: significantly reduce the injury to the colon
- joint disease [3]: prevent joint disease
- inflammation [4]: inhibit inflammation
- radiation damage [5]: attenuate the radiation damage
- radiation damage [6]: attenuate the radiation damage

Compound: Manganese(II)bis-racemic-phenylglycinato[2S, 21 S-Dimethyl(4aR,13aR,17aR,21 aR)-1,2,3,4,4a,5,6,12,13,13a,14,15,16,17,17a,18,19,20,21,21a-Eicosahydro-11,7-nitrilo-7H-dibenzo[b,h][1,4,7,10] tetraazacycloheptadecine-κN5, κN13, κN18, κN21, κN22]- [GC4715]
- Mini-Pig BioA ([1]; base oil Capmul MCM): 36%

Compound: Manganese(II)bis-racemic-phenylglycinato[6R-Methyl(4aR,13aR,17aR,21 aR)-1,2,3,4,4a,5,6,12,13,13a,14,15,16,17,17a,18,19,20,21,21a-Eicosahydro-11,7-nitrilo-7H-dibenzo[b,h][1,4,7,10] tetraazacycloheptadecine-κN5, κN13, κN18, κN21, κN22]- [GC4716]
- Mini-Pig BioA ([1]; base oil Capmul MCM): 34%

Continued, in another order:

- Mini-Pig BioA ([1]; base oil Capmul MCM): 9%
- Mini-Pig BioA ([1]; base oil Labrafil M2125 CS): 7%
- Mini-Pig BioA ([1]; base oil Maisine 35-1): 8%
- Mini-Pig BioA ([1]; base oil Miglyol 812 N): 8%
- Mini-Pig BioA ([1]; base oil Peceol): 9%
- solubility in water [10]: relatively readily soluble in water
Compound: [Cl][Mn][Cl].c1cc2nc(c1)CN[C@H]1CCCC[C@@H]1NCCN[C@H]1CCCC[C@@H]1NC2 [GC4419, reference compound]
- oral mucositis [7]: reduce oral mucositis
- anti-tumor activity of anti-metabolite and anti-mitotic agents [8]: increase the anti-tumor activity
- pulmonary disease [9]: attenuate VEGFr inhibitor-induced pulmonary disease

- Mini-Pig BioA ([1]; base oil Capmul MCM): 26%
Compound: Manganese(II)bis-racemic-phenylglycinato[(4aR,13aR,17aR,21 aR)-1,2,3,4,4a,5,6,12,13,13a,14,15,16,17,17a,18,19,20,21,21a-Eicosahydro-11,7-nitrilo-7H-dibenzo[b,h][1,4,7,10] tetraazacycloheptadecine-κN5, κN13, κN18, κN21, κN22]- [GC4717]

- Mini-Pig BioA ([1]; base oil Capmul MCM): 33%
- Mini-Pig BioA ([1]; base oil Miglyol 812 N): 32%
Compound: Manganese(II)bis-racemic-phenylglycinato[(4aS,13aS,17aS,21 aS)-1,2,3,4,4a,5,6,12,13,13a,14,15,16,17,17a,18,19,20,21,21a-Eicosahydro-11,7-nitrilo-7H-dibenzo[b,h][1,4,7,10] tetraazacycloheptadecine-κN5, κN13, κN18, κN21, κN22]- [GC4720]

Source: patent US11066433B2, “Pentaaza macrocyclic ring complexes possessing oral bioavailability” (Galera Labs, LLC, priority 2015, dated 2021)
